# Measurements from patent US11504349B2, “Composition for preventing or treating TNF-related diseases, containing novel derivative as active ingredient, and method for inhibiting TNF activity by using same” (ILAB, priority 2017, dated 2022).
# Target: TNF (Homo sapiens, UniProt P01375)
# Test: TNF-neutralization bioassay: TNF-induced cell death of LM cells (MTT)
# Assay type: cell-based
# Conditions: compound 50 μM, TNF 20 ng/ml, actinomycin D, LM cells, 24 hours
# Experimental: First, the addition of recombinant TNF to mouse fibroblast LM cells induces cell death, and thus, by using the same, the TNF-neutralization bioassay was constructed. In other words, LM cells were pretreated with TNF (20 ng/ml) and the compounds synthesized in the above examples at various concentrations (5×10^4 cells/well), and a sensitizer actinomycin D ([…]) was added, and cultured in a CO2 incubator for 24 hours, and then the MTT assay was carried out. At this time, 10 μl of MTT (5 mg/ml stock) was added, reacted for 4 hours, and then dissolved in DMSO to measure the absorbance at 570 nm. First, the TNF cell death inhibition/neutralization action of TNF-target expected compounds at single concentration (50 or 10 μM) was measured. Second, IC50 values were determined by treating with the compounds having an excellent effect at different concentrations. The % inhibition of TNF was calculated using the following formula: % inhibition of TNF=(OD value of a group treated with TNF and compound−OD value of TNF treated group/(OD value of TNF untreated group−OD value of TNF treated group)×100.
# IC50 values were statistically analyzed using Prism 6 (GraphPad) (IC50: 50% inhibitory concentration, CC50: 50% cytotoxic concentration).
# TNF, sequence (P01375 77-233 limits assumed): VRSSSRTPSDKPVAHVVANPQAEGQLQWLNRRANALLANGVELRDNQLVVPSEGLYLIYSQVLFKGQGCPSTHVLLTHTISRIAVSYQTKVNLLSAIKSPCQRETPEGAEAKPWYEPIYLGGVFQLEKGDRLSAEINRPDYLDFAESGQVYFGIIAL
row,Compound,inhibition at 50 µM
1,"O=C(O)c1c(-c2ccc(Cl)cc2)oc2ccccc2c1=O [Example 73, 2-(4-chlorophenyl)-3-carboxy-(4H)-4-benzopyranone]",42%
2,"COc1ccc(-c2oc3cc(Cl)ccc3c(=O)c2C(=O)O)cc1OC [Example 39, 2-(3,4-dimethoxyphenyl)-3-carboxy-7-chloro-(4H)-4-benzopyranone]",24.5%
3,"Cc1ccc2c(=O)c(C(=O)O)c(-c3cccs3)oc2c1 [Example 32, 2-(2-thiophenyl)-3-carboxy-7-methyl-(4H)-4-benzopyranone]",23.6%
4,"Cc1ccc2c(=O)c(C(=O)O)c(-c3cccc(F)c3F)oc2c1 [Example 53, 2-(2,3-difluorophenyl)-3-carboxy-7-methyl-(4H)-4-benzopyranone]",22.8%
5,"COc1cccc2c(=O)c(C(=O)O)c(-c3ccco3)oc12 [Example 2, 2-(2-furanyl)-3-carboxy-8-methoxy-(4H)-4-benzopyranone]",46.6%
6,"COc1ccc(-c2oc3c(C)cccc3c(=O)c2C(=O)O)cc1OC [Example 37, 2-(3,4-dimethoxyphenyl)-3-carboxy-8-methyl-(4H)-4-benzopyranone]",33.4%
7,"Cc1cccc2c(=O)c(C(=O)O)c(-c3cccc(F)c3F)oc12 [Example 52, 2-(2,3-difluorophenyl)-3-carboxy-8-methyl-(4H)-4-benzopyranone]",18.5%
8,"COc1ccc2oc(-c3cccc(C)c3)c(C(=O)O)c(=O)c2c1 [Example 7, 2-(3-methylphenyl)-3-carboxy-6-methoxy-(4H)-4-benzopyranone]",47%
9,"Cc1cccc2c(=O)c(C(=O)O)c(-c3ccc(Cl)cc3)oc12 [Example 68, 2-(4-chlorophenyl)-3-carboxy-8-methyl-(4H)-4-benzopyranone]",15.8%
10,"Cc1ccc2oc(-c3cccc(F)c3)c(C(=O)O)c(=O)c2c1 [Example 43, 2-(3-fluorophenyl)-3-carboxy-6-methyl-(4H)-4-benzopyranone]",19.4%
11,"Cc1ccc2c(=O)c(C(=O)O)c(-c3cc(F)cc(F)c3)oc2c1 [Example 48, 2-(3,5-difluorophenyl)-3-carboxy-7-methyl-(4H)-4-benzopyranone]",29%
12,"O=C(O)c1c(-c2cccs2)oc2ccc(Cl)cc2c1=O [Example 35, 2-(2-thiophenyl)-3-carboxy-6-chloro-(4H)-4-benzopyranone]",28.1%
13,"Cc1ccc2oc(-c3cc(F)ccc3F)c(C(=O)O)c(=O)c2c1 [Example 60, 2-(2,5-difluorophenyl)-3-carboxy-6-methyl-(4H)-4-benzopyranone]",28.1%
14,"O=C(O)c1c(-c2ccco2)oc2ccccc2c1=O [Example 18, 2-(2-furanyl)-3-carboxy-(4H)-4-benzopyranone]",48.6%
15,"Cc1cccc2c(=O)c(C(=O)O)c(-c3cccc(F)c3)oc12 [Example 41, 2-(3-fluorophenyl)-3-carboxy-8-methyl-(4H)-4-benzopyranone]",37.2%
16,"Cc1ccc2c(=O)c(C(=O)O)c(-c3cc(F)ccc3F)oc2c1 [Example 59, 2-(2,5-difluorophenyl)-3-carboxy-7-methyl-(4H)-4-benzopyranone]",32.3%
17,"COc1cccc2c(=O)c(C(=O)O)c(-c3cccc(C)c3)oc12 [Example 5, 2-(3-methylphenyl)-3-carboxy-8-methoxy-(4H)-4-benzopyranone]",34.4%

# Tested on: not given
# Test: not given
# Conditions: not given
row,Compound,melting point
1,"O=C(O)c1c(-c2ccc(Cl)cc2)oc2ccccc2c1=O [Example 73, 2-(4-chlorophenyl)-3-carboxy-(4H)-4-benzopyranone]",212 to 213 °C
2,"COc1ccc(-c2oc3cc(Cl)ccc3c(=O)c2C(=O)O)cc1OC [Example 39, 2-(3,4-dimethoxyphenyl)-3-carboxy-7-chloro-(4H)-4-benzopyranone]",226 to 227 °C
3,"COc1cccc2c(=O)c(C(=O)O)c(-c3ccco3)oc12 [Example 2, 2-(2-furanyl)-3-carboxy-8-methoxy-(4H)-4-benzopyranone]",195 to 197 °C
4,"COc1ccc(-c2oc3c(C)cccc3c(=O)c2C(=O)O)cc1OC [Example 37, 2-(3,4-dimethoxyphenyl)-3-carboxy-8-methyl-(4H)-4-benzopyranone]",210 to 212 °C
5,"COc1ccc2oc(-c3cccc(C)c3)c(C(=O)O)c(=O)c2c1 [Example 7, 2-(3-methylphenyl)-3-carboxy-6-methoxy-(4H)-4-benzopyranone]",198 to 199 °C
6,"Cc1cccc2c(=O)c(C(=O)O)c(-c3ccc(Cl)cc3)oc12 [Example 68, 2-(4-chlorophenyl)-3-carboxy-8-methyl-(4H)-4-benzopyranone]",217 to 219 °C
7,"O=C(O)c1c(-c2cccs2)oc2ccc(Cl)cc2c1=O [Example 35, 2-(2-thiophenyl)-3-carboxy-6-chloro-(4H)-4-benzopyranone]",202 to 204 °C
8,"O=C(O)c1c(-c2ccco2)oc2ccccc2c1=O [Example 18, 2-(2-furanyl)-3-carboxy-(4H)-4-benzopyranone]",202 to 205 °C
9,"Cc1cccc2c(=O)c(C(=O)O)c(-c3cccc(F)c3)oc12 [Example 41, 2-(3-fluorophenyl)-3-carboxy-8-methyl-(4H)-4-benzopyranone]",227 to 229 °C
10,"COc1cccc2c(=O)c(C(=O)O)c(-c3cccc(C)c3)oc12 [Example 5, 2-(3-methylphenyl)-3-carboxy-8-methoxy-(4H)-4-benzopyranone]",192 to 195 °C

# Further lines, results first:
row,melting point,Compound
1,202 to 203 °C,"Cc1ccc2c(=O)c(C(=O)O)c(-c3cccs3)oc2c1 [Example 32, 2-(2-thiophenyl)-3-carboxy-7-methyl-(4H)-4-benzopyranone]"
2,155 to 156 °C,"Cc1ccc2c(=O)c(C(=O)O)c(-c3cccc(F)c3F)oc2c1 [Example 53, 2-(2,3-difluorophenyl)-3-carboxy-7-methyl-(4H)-4-benzopyranone]"
3,167 to 169 °C,"Cc1cccc2c(=O)c(C(=O)O)c(-c3cccc(F)c3F)oc12 [Example 52, 2-(2,3-difluorophenyl)-3-carboxy-8-methyl-(4H)-4-benzopyranone]"
4,214 to 215 °C,"Cc1ccc2oc(-c3cccc(F)c3)c(C(=O)O)c(=O)c2c1 [Example 43, 2-(3-fluorophenyl)-3-carboxy-6-methyl-(4H)-4-benzopyranone]"
5,220 to 222 °C,"Cc1ccc2c(=O)c(C(=O)O)c(-c3cc(F)cc(F)c3)oc2c1 [Example 48, 2-(3,5-difluorophenyl)-3-carboxy-7-methyl-(4H)-4-benzopyranone]"
6,≥ 120 °C,"Cc1ccc2oc(-c3cc(F)ccc3F)c(C(=O)O)c(=O)c2c1 [Example 60, 2-(2,5-difluorophenyl)-3-carboxy-6-methyl-(4H)-4-benzopyranone]"
7,156 to 158 °C,"Cc1ccc2c(=O)c(C(=O)O)c(-c3cc(F)ccc3F)oc2c1 [Example 59, 2-(2,5-difluorophenyl)-3-carboxy-7-methyl-(4H)-4-benzopyranone]"
